One series has as its target CK1δ (Homo sapiens, UniProt P48730). As to the kind of experiment: in vitro phosphorylation of a standard protein or peptide substrate by purified kinase. In kind it is biochemical. The following applies: 100 mM ATP, increasing concentrations of compound, percent of maximal enzyme activity (FIG. 2).
Series [1] deals with LPS-induced serum cytokine levels. As to the kind of experiment: LPS-induced serum cytokine levels in acute inflammation mouse model (ELISA). In kind it is in vivo. The following applies: 25 mg/kg oral gavage, LPS 10 mg/kg i.p. 30 minutes later, serum after 6 hr, ELISA (FIG. 3).
Series [2] in a line: plasma levels after oral administration (oral bioavailability). Conditions: plasma levels after oral administration (FIG. 4A). It counts as in vivo.
Series [3] in a line: liver histological toxicity screen after chronic administration. It counts as in vivo. Conditions: after chronic administration (FIG. 4B).
Series [4] is described as follows: metabolic stability in human liver microsome screen. In kind it is in vitro ADME. Conditions: human liver microsome screen (FIG. 4C).

The structures appear in SMILES notation.

Sequence of CK1δ (P48730 whole entry): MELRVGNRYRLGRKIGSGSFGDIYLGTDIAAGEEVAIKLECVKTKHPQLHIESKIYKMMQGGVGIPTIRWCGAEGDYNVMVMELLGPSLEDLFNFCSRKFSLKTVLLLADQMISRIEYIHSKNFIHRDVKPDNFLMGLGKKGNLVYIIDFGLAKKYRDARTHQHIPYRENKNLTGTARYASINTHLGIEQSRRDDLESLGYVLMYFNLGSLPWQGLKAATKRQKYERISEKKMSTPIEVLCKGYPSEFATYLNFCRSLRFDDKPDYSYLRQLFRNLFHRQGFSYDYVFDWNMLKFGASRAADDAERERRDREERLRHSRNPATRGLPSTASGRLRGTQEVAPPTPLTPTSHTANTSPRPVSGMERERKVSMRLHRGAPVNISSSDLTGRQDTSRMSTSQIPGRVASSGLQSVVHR

Turning to `c1ccc(-c2nnc(N3CCN(c4ncccn4)CC3)cc2-c2ccncc2)cc1` [MW01-2-069aSRM], the “inhibition of CK1δ enzyme activity” value on CK1δ was “inhibit in vitro p38 MAPK and CK1δ enzyme activity in a concentration dependent manner”. Besides, the “inhibition of LPS-induced serum cytokine levels” value in series [1] is “inhibit LPS-induced serum cytokine levels in vivo”. In addition, the oral bioavailability result in series [2] was “oral bioavailability, safety and metabolic stability is demonstrated”. Further, the liver histological toxicity result in series [3] was “no liver histological toxicity”. For the same compound, the metabolic stability result in series [4] is on record as “metabolic stability is demonstrated”.

The values are drawn from patent US8188096B2, “Protein kinase targeted therapeutics” (Northwestern University, priority 2006, dated 2012).
